Assays:
[1] = biological target: T1, Serine/threonine-protein kinase ATR (Homo sapiens, UniProt Q13535); experiment: Inhibition of ATR (unknown origin) using peptide as substrate at 0.1 uM preincubated for 10 mins followed by substrate addition by microplate reader analysis
Target sequence in this assay (Q13535 whole entry, looked up): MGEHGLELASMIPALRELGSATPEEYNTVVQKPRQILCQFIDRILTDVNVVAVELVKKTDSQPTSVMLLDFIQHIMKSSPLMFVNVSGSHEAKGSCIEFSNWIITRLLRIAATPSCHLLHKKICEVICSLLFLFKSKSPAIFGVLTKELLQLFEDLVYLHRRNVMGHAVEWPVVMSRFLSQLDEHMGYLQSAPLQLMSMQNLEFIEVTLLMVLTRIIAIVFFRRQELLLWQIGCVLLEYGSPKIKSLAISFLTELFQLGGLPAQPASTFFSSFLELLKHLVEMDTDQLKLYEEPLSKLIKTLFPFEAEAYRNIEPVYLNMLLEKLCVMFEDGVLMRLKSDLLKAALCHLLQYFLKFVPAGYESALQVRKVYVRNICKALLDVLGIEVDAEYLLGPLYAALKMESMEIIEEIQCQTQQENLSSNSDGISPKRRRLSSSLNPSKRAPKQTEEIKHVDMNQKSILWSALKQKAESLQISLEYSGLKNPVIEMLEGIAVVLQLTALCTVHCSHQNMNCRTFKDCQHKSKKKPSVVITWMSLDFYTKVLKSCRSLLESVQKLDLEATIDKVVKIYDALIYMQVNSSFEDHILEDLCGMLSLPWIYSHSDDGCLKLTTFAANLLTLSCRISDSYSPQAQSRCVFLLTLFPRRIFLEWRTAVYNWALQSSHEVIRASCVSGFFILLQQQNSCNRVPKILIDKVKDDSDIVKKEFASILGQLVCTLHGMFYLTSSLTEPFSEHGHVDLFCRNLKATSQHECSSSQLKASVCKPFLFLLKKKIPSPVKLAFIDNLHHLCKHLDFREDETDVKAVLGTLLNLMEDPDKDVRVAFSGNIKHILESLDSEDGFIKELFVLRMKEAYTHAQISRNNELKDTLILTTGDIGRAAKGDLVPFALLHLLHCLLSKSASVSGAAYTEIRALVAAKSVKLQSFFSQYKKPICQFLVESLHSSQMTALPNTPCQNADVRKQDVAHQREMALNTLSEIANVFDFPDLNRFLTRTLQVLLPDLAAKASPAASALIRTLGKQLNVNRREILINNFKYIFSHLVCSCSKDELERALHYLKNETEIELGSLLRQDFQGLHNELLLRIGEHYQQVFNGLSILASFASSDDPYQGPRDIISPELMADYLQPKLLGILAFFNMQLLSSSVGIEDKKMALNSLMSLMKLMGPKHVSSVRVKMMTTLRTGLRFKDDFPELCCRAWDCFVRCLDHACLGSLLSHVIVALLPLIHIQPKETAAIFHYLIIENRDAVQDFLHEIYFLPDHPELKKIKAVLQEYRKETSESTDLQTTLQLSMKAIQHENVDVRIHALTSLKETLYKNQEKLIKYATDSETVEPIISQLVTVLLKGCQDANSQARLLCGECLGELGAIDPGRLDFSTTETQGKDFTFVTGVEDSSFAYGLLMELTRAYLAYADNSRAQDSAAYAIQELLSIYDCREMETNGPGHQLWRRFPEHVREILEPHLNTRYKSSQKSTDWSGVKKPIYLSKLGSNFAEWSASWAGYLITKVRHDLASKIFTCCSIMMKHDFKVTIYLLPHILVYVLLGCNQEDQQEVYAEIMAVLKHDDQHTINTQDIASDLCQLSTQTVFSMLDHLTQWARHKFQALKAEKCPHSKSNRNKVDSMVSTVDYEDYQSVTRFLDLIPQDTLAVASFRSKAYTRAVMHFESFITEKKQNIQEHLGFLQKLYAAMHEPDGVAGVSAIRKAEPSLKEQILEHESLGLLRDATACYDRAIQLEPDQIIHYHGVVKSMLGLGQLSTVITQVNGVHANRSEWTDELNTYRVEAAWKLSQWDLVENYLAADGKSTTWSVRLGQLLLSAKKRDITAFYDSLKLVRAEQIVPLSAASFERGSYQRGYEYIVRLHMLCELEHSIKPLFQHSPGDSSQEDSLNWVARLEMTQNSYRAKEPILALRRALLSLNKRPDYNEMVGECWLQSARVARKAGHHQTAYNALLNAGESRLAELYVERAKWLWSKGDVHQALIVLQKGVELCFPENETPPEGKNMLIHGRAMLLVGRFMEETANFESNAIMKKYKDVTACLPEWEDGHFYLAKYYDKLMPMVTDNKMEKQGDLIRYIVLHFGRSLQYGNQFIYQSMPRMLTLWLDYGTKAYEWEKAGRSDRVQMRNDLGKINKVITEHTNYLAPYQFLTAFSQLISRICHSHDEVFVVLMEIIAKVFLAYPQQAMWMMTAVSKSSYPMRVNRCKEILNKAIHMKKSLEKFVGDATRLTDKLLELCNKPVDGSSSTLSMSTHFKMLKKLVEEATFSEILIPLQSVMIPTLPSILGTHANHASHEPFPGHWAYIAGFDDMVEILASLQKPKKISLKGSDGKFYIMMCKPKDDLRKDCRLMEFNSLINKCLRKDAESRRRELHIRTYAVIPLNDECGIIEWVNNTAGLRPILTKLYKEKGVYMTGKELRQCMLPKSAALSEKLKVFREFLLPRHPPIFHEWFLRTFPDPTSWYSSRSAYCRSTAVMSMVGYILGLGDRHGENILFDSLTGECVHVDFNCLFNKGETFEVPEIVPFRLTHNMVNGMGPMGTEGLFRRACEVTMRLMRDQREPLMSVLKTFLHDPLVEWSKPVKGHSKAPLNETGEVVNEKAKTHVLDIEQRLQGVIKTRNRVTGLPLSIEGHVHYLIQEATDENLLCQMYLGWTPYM

[2] = system: A549; experiment: Antiproliferative activity against ATM-proficient human A549 cells assessed as reduction in cell viability incubated for 3 days in presence of AZD-1390 by MTT assay; type: functional, cell-based; conditions: A549, 72 h
[3] = system: MCF7; experiment: Antiproliferative activity against human MCF7 cells assessed as reduction in cell viability incubated for 3 days by MTT assay; type: functional, cell-based; conditions: MCF7, 72 h
[4] = system: MCF7; experiment: Synergistic antiproliferative activity against human MCF7 cells assessed as reduction in cell viability incubated for 3 days in presence of olaparib by MTT assay; type: functional, cell-based; conditions: MCF7, 72 h
[5] = system: MDA-MB-231; experiment: Synergistic antiproliferative activity against human MDA-MB-231 cells assessed as reduction in cell viability incubated for 3 days in presence of olaparib by MTT assay; type: functional, cell-based; conditions: MDA-MB-231, 72 h
[6] = system: HT-29; experiment: Antiproliferative activity against ATM-proficient human HT-29 cells assessed as reduction in cell proliferation incubated for 3 days by MTT assay; type: functional, cell-based; conditions: HT-29, 72 h
[7] = system: MDA-MB-231; experiment: Antiproliferative activity against human MDA-MB-231 cells assessed as reduction in cell viability incubated for 3 days by MTT assay; type: functional, cell-based; conditions: MDA-MB-231, 72 h
[8] = system: A549; experiment: Antiproliferative activity against ATM-proficient human A549 cells assessed as reduction in cell viability incubated for 3 days by MTT assay; type: functional, cell-based; conditions: A549, 72 h
[9] = system: HCT-116; experiment: Synergistic antiproliferative activity against ATM-proficient human HCT-116 cells assessed as reduction in cell viability incubated for 3 days in presence of cisplatin by MTT assay; type: functional, cell-based; conditions: HCT-116, 72 h
[10] = system: LoVo; experiment: Antiproliferative activity against ATM-deficient human LoVo cells assessed as reduction in cell proliferation incubated for 3 days by MTT assay; type: functional, cell-based; conditions: 72 h
[11] = system: HCT-116; experiment: Synergistic antiproliferative activity against ATM-proficient human HCT-116 cells assessed as reduction in cell viability incubated for 3 days in presence of oxaliplatin by MTT assay; type: functional, cell-based; conditions: HCT-116, 72 h
[12] = system: HCT-116; experiment: Antiproliferative activity against ATM-proficient human HCT-116 cells assessed as reduction in cell viability incubated for 3 days in presence of AZD-1390 by MTT assay; type: functional, cell-based; conditions: HCT-116, 72 h
[13] = system: HCT-116; experiment: Antiproliferative activity against ATM-proficient human HCT-116 cells assessed as reduction in cell viability incubated for 3 days by MTT assay; type: functional, cell-based; conditions: HCT-116, 72 h
[14] = system: OVCAR-3; experiment: Antiproliferative activity against ATM-deficient human OVCAR-3 cells assessed as reduction in cell viability incubated for 3 days by MTT assay; type: functional, cell-based; conditions: OVCAR-3, 72 h
[15] = system: A549; experiment: Synergistic antiproliferative activity against ATM-proficient human A549 cells assessed as reduction in cell viability incubated for 3 days in presence of oxaliplatin by MTT assay; type: functional, cell-based; conditions: A549, 72 h
[16] = system: SW-620; experiment: Antiproliferative activity against ATM-deficient human SW620 cells assessed as reduction in cell viability incubated for 3 days by MTT assay; type: functional, cell-based; conditions: SW-620, 72 h
[17] = system: A549; experiment: Synergistic antiproliferative activity against ATM-proficient human A549 cells assessed as reduction in cell viability incubated for 3 days in presence of cisplatin by MTT assay; type: functional, cell-based; conditions: A549, 72 h
[18] = system: HT-29; experiment: Antiproliferative activity against ATM-proficient human HT-29 cells assessed as reduction in cell viability incubated for 3 days in presence of AZD-1390 by MTT assay; type: functional, cell-based; conditions: HT-29, 72 h
[19] = in vitro; conditions: human, liver microsomes
[20] = in vitro; conditions: rat, liver microsomes
[21] = biological target: T1, Serine/threonine-protein kinase ATR; experiment: Inhibition of ATR (unknown origin) using peptide as substrate preincubated for 10 mins followed by substrate addition by microplate reader analysis
Target sequence in this assay (Q13535 whole entry): as the sequence (Q13535 whole entry, looked up) above

[22] = biological target: Serine/threonine-protein kinase mTOR (Homo sapiens, UniProt P42345); experiment: Inhibition of mTOR (unknown origin) using peptide as substrate preincubated for 10 mins followed by substrate addition by microplate reader analysis
[23] = in vitro; conditions: rat, liver microsomes; remark: listed apart in the source
[24] = in vitro; conditions: human, liver microsomes; remark: listed apart in the source
[25] = in vitro; conditions: human, liver microsomes; remark: listed apart in the source
[26] = in vitro; conditions: rat, liver microsomes; remark: listed apart in the source
[27] = Half life in Sprague-Dawley rat at 5 mg/kg, po and measured upto 24 hrs by LC-MS analysis; type: ADME, organism-based; conditions: in vivo
[28] = AUC (0 to infinity) in Sprague-Dawley rat at 5 mg/kg, po and measured upto 24 hrs by LC-MS analysis; type: ADME, organism-based; design: time < 24 hrs, dose 5 mg/kg, route po; conditions: in vivo
[29] = AUCt in Sprague-Dawley rat at 5 mg/kg, po and measured upto 24 hrs by LC-MS analysis; type: ADME, organism-based; design: time < 24 hrs, dose 5 mg/kg, route po; conditions: in vivo
[30] = Clearance in Sprague-Dawley rat at 1 mg/kg, iv and measured upto 24 hrs by LC-MS analysis; type: ADME, organism-based; conditions: in vivo
[31] = AUC(0 to infinity) in Sprague-Dawley rat at 1 mg/kg, iv and measured upto 24 hrs by LC-MS analysis; type: ADME, organism-based; design: time < 24 hrs, dose 1 mg/kg, route iv; conditions: in vivo
[32] = MRT(t) in Sprague-Dawley rat at 5 mg/kg, po and measured upto 24 hrs by LC-MS analysis; type: ADME, organism-based; conditions: in vivo
[33] = Tmax in Sprague-Dawley rat at 5 mg/kg, po and measured upto 24 hrs by LC-MS analysis; type: ADME, organism-based; conditions: in vivo
[34] = MRT (0 to infinity) in Sprague-Dawley rat at 1 mg/kg, iv and measured upto 24 hrs by LC-MS analysis; type: ADME, organism-based; conditions: in vivo
[35] = Oral bioavailability in Sprague-Dawley rat at 5 mg/kg and measured upto 24 hrs by LC-MS analysis; type: ADME, organism-based; conditions: in vivo
[36] = Cmax in Sprague-Dawley rat at 5 mg/kg, po and measured upto 24 hrs by LC-MS analysis; type: ADME, organism-based; design: time < 24 hrs, dose 5 mg/kg, route po; conditions: in vivo
[37] = AUCt in Sprague-Dawley rat at 1 mg/kg, iv and measured upto 24 hrs by LC-MS analysis; type: ADME, organism-based; design: dose 1 mg/kg, time < 24 hrs, route iv; conditions: in vivo
[38] = MRT (0 to infinity) in Sprague-Dawley rat at 5 mg/kg, po and measured upto 24 hrs by LC-MS analysis; type: ADME, organism-based; conditions: in vivo
[39] = MRT(t) in Sprague-Dawley rat at 1 mg/kg, iv and measured upto 24 hrs by LC-MS analysis; type: ADME, organism-based; conditions: in vivo
[40] = Half life in Sprague-Dawley rat at 1 mg/kg, iv and measured upto 24 hrs by LC-MS analysis; type: ADME, organism-based; conditions: in vivo
[41] = Volume of distribution at steady state in Sprague-Dawley rat at 1 mg/kg, iv and measured upto 24 hrs by LC-MS analysis; type: ADME, organism-based; conditions: in vivo, read-out: Vdss
[42] = system: LoVo; experiment: Antiproliferative activity against ATM-deficient human LoVo cells assessed as reduction in cell proliferation at 0.1 to 25 uM incubated for 3 days by MTT assay; type: functional, cell-based; conditions: dose 0.1-25 µM, time 3.0 day
[43] = system: HT-29; experiment: Antiproliferative activity against ATM-proficient human HT-29 cells assessed as reduction in cell proliferation at 0.5 to 22 uM incubated for 3 days by MTT assay; type: functional, cell-based; conditions: dose 0.5-22 µM, time 3.0 day

C[C@@H]1COCCN1c1nc(-c2cccc3[nH]ccc23)nc2c1CCN(Cc1ccccc1)C2(C)C
inhibition [1]: 14.6%

C[C@@H]1COCCN1c1cc(C2(S(C)(=O)=O)CC2)nc(-c2cccc3[nH]ccc23)n1
IC50 [2]: 495 nM | IC50 [3]: 2310 nM | IC50 [4]: 1220 nM | IC50 [5]: 254 nM | IC50 [6]: 644 nM | IC50 [7]: 2970 nM | IC50 [8]: 734 nM | IC50 [9]: 137 nM | IC50 [10]: 231 nM | IC50 [11]: 92 nM | IC50 [12]: 151 nM | IC50 [13]: 260 nM | IC50 [14]: 563 nM | IC50 [15]: 333 nM | IC50 [16]: 727 nM | IC50 [17]: 481 nM | IC50 [18]: 72 nM

CC(=O)N1CCc2c(N3CCOC[C@H]3C)nc(-c3cccc4[nH]ccc34)nc2C1(C)C
half-life at 1 h, 1 µM [19]: 0.188 h | half-life at 1 h, 1 µM [20]: 0.378 h | IC50 [21]: 13 nM | IC50 [22]: 13 nM | IC50 [6]: 4610 nM | inhibition [1]: 89.9% | IC50 [10]: 1260 nM | microsomal CLint at 1 h, 1 µM [23]: 61.4 µL/min/mg | microsomal CLint at 1 h, 1 µM [24]: 123 µL/min/mg | CLint scaled at 1 h, 1 µM [25]: 116 mL/min/kg | CLint scaled at 1 h, 1 µM [26]: 110 mL/min/kg

COc1cccc(C(=O)N2Cc3c(N4CCOC[C@H]4C)nc(-c4cccc5[nH]ccc45)nc3C2(C)C)c1
half-life [27]: 1.87 h | half-life at 1 h, 1 µM [19]: 0.447 h | half-life at 1 h, 1 µM [20]: 1.17 h | IC50 [21]: 4 nM | AUC(0-inf) [28]: 342 ng·h/mL | AUC(0-t) at 24 h [29]: 323 ng·h/mL | clearance [30]: 20.1 mL/min/kg | AUC(0-inf) [31]: 840 ng·h/mL | IC50 [6]: 357 nM | MRT last at 24 h [32]: 2.7 h | Tmax [33]: 0.667 h | MRT inf [34]: 1.08 h | IC50 [10]: 151 nM | bioavailability [35]: 8.1% | microsomal CLint at 1 h, 1 µM [23]: 20.1 µL/min/mg | Cmax [36]: 86.2 ng/mL | AUC(0-t) at 24 h [37]: 835 ng·h/mL | MRT inf [38]: 3.08 h | microsomal CLint at 1 h, 1 µM [24]: 51.6 µL/min/mg | MRT last at 24 h [39]: 1.02 h | half-life [40]: 1.28 h | CLint scaled at 1 h, 1 µM [25]: 48.8 mL/min/kg | Vd [41]: 1.3 L/kg | CLint scaled at 1 h, 1 µM [26]: 36.2 mL/min/kg

C[C@@H]1COCCN1c1nc(-c2cccc3[nH]ccc23)nc2c1CCNC2(C)C
inhibition [1]: 70.7%

CC(=O)c1ccc(C(=O)N2Cc3c(N4CCOC[C@H]4C)nc(-c4cccc5[nH]ccc45)nc3C2(C)C)cc1
half-life at 1 h, 1 µM [19]: 0.0823 h | half-life at 1 h, 1 µM [20]: 0.812 h | IC50 [21]: 6 nM | Activity [42]: Dose-Dependent Effect | IC50 [6]: 307 nM | IC50 [10]: 96 nM | microsomal CLint at 1 h, 1 µM [23]: 28.5 µL/min/mg | microsomal CLint at 1 h, 1 µM [24]: 281 µL/min/mg | CLint scaled at 1 h, 1 µM [25]: 265 mL/min/kg | Activity [43]: Dose-Dependent Effect | CLint scaled at 1 h, 1 µM [26]: 51.4 mL/min/kg
